# From ChEMBL document CHEMBL1201862, “PubChem BioAssay data set” (2004)
#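 In this assay, cells in 96-well plates receive the compound at five concentrations for 48 hours. Endpoints are linearly interpolated between the surrounding concentrations. The concentration for 50% growth inhibition is given as GI50.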 Calls of active or inactive are those of the source. Cut-off read from the data, not from the text of the source: active = GI50 up to about 1.1 µM and inactive = higher. Numbered stars: 1 amine (or outer) side, 2 acyl side, 3 side chain; on linkers, the order of the positions; unused ones are H or OH. Square brackets hold non-standard residues; d marks the D form. Peptide text beside a SMILES is read from it. X55 = CC[C@H](C)[C@H](OC(=O)[C@@H](C)[C@@H](CC)N[*:1])C(=O)[*:2]; X31 = C[C@H](N[*:1])C(=O)C(C)(C)C(=O)[*:2]; NMeY = CN[C@@H](Cc1ccc(O)cc1)C(=O)O; NMeL = CN[C@@H](CC(C)C)C(=O)O; NMeV = CN[C@H](C(=O)O)C(C)C
# How the values were obtained:
# Assay in all cases: inhibition of tumour cell growth, NCI panel, 48 h
# [1] = test system: A498
# [2] = test system: A549
# [3] = test system: COLO 205
# [4] = test system: EKVX
# [5] = test system: HCT-116
# [6] = test system: HCT-15
# [7] = test system: HL-60
# [8] = test system: HOP-62
# [9] = test system: HT-29
# [10] = test system: KM-20L2
# [11] = test system: NCI-H522
# [12] = test system: OVCAR-5
# [13] = test system: RXF 393
# [14] = test system: SF-268
# [15] = test system: UACC-257
# [16] = test system: UACC-62
# [17] = test system: BT-549
# [18] = test system: Hs-578T
# [19] = test system: MDA-N
# [20] = test system: PC-3
Compound,GI50 [1],GI50 [2],GI50 [3],GI50 [4],GI50 [5],GI50 [6] [µM],GI50 [7],GI50 [8],GI50 [9],GI50 [10],GI50 [11],GI50 [12],GI50 [13],GI50 [14],GI50 [15],GI50 [16],GI50 [17],GI50 [18],GI50 [19],GI50 [20]
NC(=O)N/N=C1/CCCC/C1=C\c1ccccc1,> 100 µM (inactive),> 100 µM (inactive),> 100 µM (inactive),> 100 µM (inactive),> 100 µM (inactive),> 100,> 100 µM (inactive),> 100 µM (inactive),> 100 µM (inactive),> 100 µM (inactive),> 100 µM (inactive),> 100 µM (inactive),> 100 µM (inactive),> 100 µM (inactive),> 100 µM (inactive),> 100 µM (inactive),–,–,–,–
CC[C@H](C)[C@@H]1OC(=O)[C@@H](C)[C@@H](CC)NC(=O)[C@H](C)NC(=O)C(C)(C)C(=O)[C@H](C)NC(=O)[C@H](Cc2ccc(OC)cc2)N(C)C(=O)[C@H](C(C)C)N(C)C(=O)CNC(=O)[C@H](CC(C)C)N(C)C(=O)CNC1=O [DOLASTATIN 11] (cyclo(A[X55]G[NMeL]G[NMeV][NMeY](Me)[X31])),0.118 µM (active),0.0175 µM (active),–,0.102 µM (active),0.154 µM (active),0.67,0.0117 µM (active),0.0497 µM (active),0.0264 µM (active),< 0.0197 µM (active),0.00607 µM (active),0.9 µM (active),0.0223 µM (active),0.082 µM (active),0.0817 µM (active),0.0893 µM (active),0.091 µM (active),0.258 µM (active),0.0855 µM (active),0.0849 µM (active)
N#C/C(=C\c1ccccc1)C(NO)Nc1ccccc1 (stereo not drawn),80.2 µM (inactive),> 100 µM (inactive),45.3 µM (inactive),> 100 µM (inactive),40.7 µM (inactive),79.8,> 100 µM (inactive),> 100 µM (inactive),72.9 µM (inactive),> 100 µM (inactive),35.3 µM (inactive),> 100 µM (inactive),41.5 µM (inactive),65.3 µM (inactive),> 100 µM (inactive),42.1 µM (inactive),–,–,–,–
COc1ccc(C2CCC(Cl)(OC)CC2C=O)cc1 (stereo not drawn),> 100 µM (inactive),61.5 µM (inactive),> 100 µM (inactive),> 100 µM (inactive),52 µM (inactive),49.4,69.5 µM (inactive),94 µM (inactive),50.7 µM (inactive),67.1 µM (inactive),64.7 µM (inactive),> 100 µM (inactive),0.128 µM (active),21.9 µM (inactive),> 100 µM (inactive),58.7 µM (inactive),–,–,–,–
CC1=C(C(=O)Nc2ccc(Cl)c(C(=O)OC(C)C)c2)SCCO1,53.5 µM (inactive),50.1 µM (inactive),51.9 µM (inactive),71.4 µM (inactive),> 77.4 µM (inactive),69,13.8 µM (inactive),> 91.4 µM (inactive),25.7 µM (inactive),33.9 µM (inactive),36.4 µM (inactive),47.9 µM (inactive),48.1 µM (inactive),30.6 µM (inactive),62.1 µM (inactive),67.6 µM (inactive),> 100 µM (inactive),17.7 µM (inactive),–,> 100 µM (inactive)
O=C(CC(=O)C1CCOC1=O)C(=O)Nc1ccc(Cl)cc1Cl (stereo not drawn),> 100 µM (inactive),> 100 µM (inactive),> 100 µM (inactive),> 100 µM (inactive),> 100 µM (inactive),> 100,> 100 µM (inactive),> 100 µM (inactive),> 100 µM (inactive),> 100 µM (inactive),> 100 µM (inactive),> 100 µM (inactive),> 100 µM (inactive),> 100 µM (inactive),> 100 µM (inactive),> 100 µM (inactive),–,–,–,–
O=C(Nc1nccs1)c1cc(C2=CC=CC([N+](=O)[O-])C=C2)nc(S)n1 (stereo not drawn),> 100 µM (inactive),> 100 µM (inactive),> 100 µM (inactive),> 100 µM (inactive),> 100 µM (inactive),> 100,> 100 µM (inactive),> 100 µM (inactive),> 100 µM (inactive),> 100 µM (inactive),> 100 µM (inactive),> 100 µM (inactive),> 100 µM (inactive),> 100 µM (inactive),> 100 µM (inactive),> 100 µM (inactive),–,–,–,–
CCCCCCCCCCCCCS(=O)(=O)O,> 100 µM (inactive),> 100 µM (inactive),> 100 µM (inactive),> 100 µM (inactive),> 100 µM (inactive),> 100,> 100 µM (inactive),> 100 µM (inactive),> 100 µM (inactive),> 100 µM (inactive),> 100 µM (inactive),> 100 µM (inactive),> 100 µM (inactive),> 100 µM (inactive),> 100 µM (inactive),> 100 µM (inactive),–,–,–,–
CCOc1ccccc1NC(=O)CCC(=O)OC,> 100 µM (inactive),> 100 µM (inactive),> 58.2 µM (inactive),> 100 µM (inactive),> 100 µM (inactive),> 74.5,> 51.8 µM (inactive),> 100 µM (inactive),> 100 µM (inactive),> 100 µM (inactive),> 100 µM (inactive),> 100 µM (inactive),> 100 µM (inactive),> 100 µM (inactive),> 100 µM (inactive),> 100 µM (inactive),–,–,–,–
CCOP(=O)(OCC)OC1C=CC2CCC1C2 (stereo not drawn),> 100 µM (inactive),> 100 µM (inactive),> 100 µM (inactive),> 100 µM (inactive),> 100 µM (inactive),20.7,> 100 µM (inactive),> 100 µM (inactive),> 100 µM (inactive),> 100 µM (inactive),> 100 µM (inactive),> 100 µM (inactive),> 100 µM (inactive),> 100 µM (inactive),> 100 µM (inactive),> 100 µM (inactive),–,–,–,–
O=C1C=CC(=CC=C2C=CN(CCCCCCCCCCC(=O)NCCCCCCCCCCCC(=O)O)C=C2)C=C1,> 100 µM (inactive),> 100 µM (inactive),> 100 µM (inactive),> 100 µM (inactive),> 100 µM (inactive),> 100,> 100 µM (inactive),> 100 µM (inactive),> 100 µM (inactive),> 100 µM (inactive),> 100 µM (inactive),> 100 µM (inactive),> 100 µM (inactive),> 100 µM (inactive),> 100 µM (inactive),> 100 µM (inactive),–,–,–,–
COc1cc(CCc2ccc(OC(C)=O)cc2)cc(OC)c1OC,> 100 µM (inactive),> 100 µM (inactive),> 100 µM (inactive),> 100 µM (inactive),> 100 µM (inactive),> 100,> 100 µM (inactive),> 100 µM (inactive),> 100 µM (inactive),> 100 µM (inactive),52 µM (inactive),72.4 µM (inactive),> 100 µM (inactive),> 100 µM (inactive),> 100 µM (inactive),> 100 µM (inactive),–,–,–,–
